In brackets after ≈: the same amount, converted by molar mass.
What was measured:
Influenza B/Harbin/7/95 = assay type: cell-based; details: concentration that inhibited CPE by 50%; MDCK cells, up to 72 hours, MTT
Influenza A/Sydney/5/97 = assay type: cell-based; details: concentration that inhibited CPE by 50%; MDCK cells, up to 72 hours, MTT
[1] = test system: A/New Caledonia/20/99 BVLV008 (H1N1); experiment: Plaque reduction assay (PRA) in MDCK cells; assay type: cell-based, influenza A H1N1; details: reduces plaque numbers by 50%, A/New Caledonia/20/99 (H1N1); for EC50: Influenza A virus, H1N1, MDCK
Protocol: (§1) Madin Darby Canine Kidney (MDCK) cells are seeded into six well tissue culture plates and grown to confluency via standard methods. Influenza viruses are diluted in a minimal volume of phosphate buffered saline supplemented with 0.2% bovine serum albumin to yield an estimated titre of 50–100 plaque forming units (pfu) per well. After adsorption to the MDCK cells for one hour at 37° C. in a 5% CO2 atmosphere the viral inocula is aspirated and replaced with viral growth media (minimal Eagle's media supplemented with BSA, trypsin and insulin/transferrin/selenium at optimal concentrations) containing sufficient agar or agarose (generally 1–2%) to cause the media to gel at room temperature and at 37° C. in a 5% CO2 atmosphere until plaques develop (generally 2–4 days). Plaques can be visualised with a suitable stain (e.g. 0.4% crystal violet in formal saline) before counting.

[2] = test system: A/Panama/2007/99 BVLV008 (H3N2); experiment: Plaque reduction assay (PRA) in MDCK cells; assay type: cell-based, influenza A H3N2; details: reduces plaque numbers by 50%, A/Panama/2007/99 (H3N2); for EC50: Influenza A virus, H3N2, MDCK, read-out: EC50 PRA A/Pan
Protocol: as §1

[3] = test system: A/Victoria/3/75 BVLV017 (H3N2); experiment: Plaque reduction assay (PRA) in MDCK cells; assay type: cell-based, influenza A H3N2; details: Influenza A virus, MDCK; reduces plaque numbers by 50%; A/Victoria/3/75 (H3N2); read-out: EC50 PRA A/Vic
Protocol: as §1

B/Hong Kong/5/72 BVLV012 = experiment: Plaque reduction assay (PRA) in MDCK cells; assay type: cell-based, influenza B; details: Influenza B virus, MDCK; reduces plaque numbers by 50%; B/Hong Kong/5/72; read-out: EC50 PRA B/HongK
Protocol: as §1

[4] = test system: B/Yamanashi/166/98 BVLV007; experiment: Plaque reduction assay (PRA) in MDCK cells; assay type: cell-based, influenza B; details: Influenza B virus, MDCK, reduces plaque numbers by 50%; B/Yamanashi/166/98; read-out: EC50 PRA B/Yam
Protocol: as §1

A/WSN/33 BVLV09 (H1N1) = experiment: Plaque reduction assay (PRA) in MDCK cells; assay type: cell-based, influenza A H1N1; details: reduces plaque numbers by 50%, A/WSN/33 (H1N1)
Protocol: as §1

[5] = test system: A/Bayern/7/95 BVL006 (H1N1); experiment: Plaque reduction assay (PRA) in MDCK cells; assay type: cell-based, influenza A H1N1; details: Influenza A virus, MDCK; reduces plaque numbers by 50%; A/Bayern/7/95 (H1N1); read-out: EC50 PRA A/Bay
Protocol: as §1

recent clinical isolates = details: in vitro assays involving recent clinical isolates, Woods et al 1993; cited from earlier work
[6] = test system: A/Sydney/5/97 BVLV015 (H3N2); experiment: Plaque reduction assay (PRA) in MDCK cells; assay type: cell-based, influenza A H3N2; details: Influenza A virus, MDCK; reduces plaque numbers by 50%; A/Sydney/5/97 (H3N2); read-out: EC50 PRA A/Syd
Protocol: as §1

[7] = Rat lung retention assay (intra-tracheal dosing, compound level in lung tissue); assay type: in vivo; details: rat, in vivo, 0.1 mg/kg
Protocol: Rodents are anaesthetised and dosed with compound of interest by the intra-tracheal route at a dose volume of 0.8 ml/kg. The rodent is then held in the vertical position until full recovery is achieved. […] Any analytical method suitable for detection of this type of compound may be used. The time at which levels of compound fall below the sensitivity of the analytical techniques identified will determine the residency time of the compound in lung tissue.
Please note that all experiments included a co-dosed internal standard, namely compound 3 of International Patent Publication No. WO 02/20514, to permit comparison. The data are expressed as a ratio with respect to this compound, the structure of which is shown below.

CC(=O)N[C@H]1[C@H]([C@H](OC(=O)NCCCCCCNC(=O)c2cccc(C(=O)NCCCCCCNC(=O)O[C@@H]([C@@H]3OC(C(=O)O)=C[C@H](NC(=N)N)[C@H]3NC(C)=O)[C@H](O)CO)c2)[C@H](O)CO)OC(C(=O)O)=C[C@@H]1NC(=N)N [Compound 8]
ID50 B/Harbin/7/95 (Influenza B/Harbin/7/95): 0.9 ng/mL (≈ 0.834 nM) | ID50 A/Sydney/5/97 (Influenza A/Sydney/5/97): 0.4 ng/mL (≈ 0.371 nM)

CC(=O)N[C@H]1[C@H]([C@H](OC(=O)NCCCNC(=O)c2cccc(C(=O)NCCCNC(=O)O[C@@H]([C@@H]3OC(C(=O)O)=C[C@H](NC(=N)N)[C@H]3NC(C)=O)[C@H](O)CO)c2)[C@H](O)CO)OC(C(=O)O)=C[C@@H]1NC(=N)N [Compound 11]
ID50 B/Harbin/7/95 (Influenza B/Harbin/7/95): 0.1 ng/mL (≈ 0.101 nM) | ID50 A/Sydney/5/97 (Influenza A/Sydney/5/97): 0.1 ng/mL (≈ 0.101 nM)

CC(=O)N[C@H]1[C@H]([C@H](OC(=O)NCCCCCCNC(=O)c2ccc(C(=O)NCCCCCCNC(=O)O[C@@H]([C@@H]3OC(C(=O)O)=C[C@H](NC(=N)N)[C@H]3NC(C)=O)[C@H](O)CO)cc2)[C@H](O)CO)OC(C(=O)O)=C[C@@H]1NC(=N)N [Compound 6]
ID50 B/Harbin/7/95 (Influenza B/Harbin/7/95): 0.9 ng/mL (≈ 0.834 nM) | ID50 A/Sydney/5/97 (Influenza A/Sydney/5/97): 0.2 ng/mL (≈ 0.185 nM)

NC12CC3CC(CC(C3)C1)C2 [Amantadine]
EC50 [1]: 11 ng/mL (≈ 72.7 nM) | EC50 [2]: 157 ng/mL (≈ 1040 nM) | EC50 [3]: 220 ng/mL (≈ 1450 nM) | EC50 (B/Hong Kong/5/72 BVLV012): > 10000 ng/mL | EC50 [4]: 2060 ng/mL (≈ 13600 nM)

CC(=O)N[C@@H]1C(N=C(N)N)C=C(C(=O)O)O[C@H]1[C@H](O)[C@H](O)CO (single isomer, unassigned) [Compound A, 4-guanidino-2-deoxy-2,3-dehydro-N-acetylneuraminic acid, reference compound]
EC50 (A/WSN/33 BVLV09 (H1N1); Influenza A virus, MDCK): 56 ng/mL (≈ 169 nM) | EC50 PRA A/WSN (A/WSN/33 BVLV09 (H1N1)): > 100 ng/mL | EC50 [5]: 35 ng/mL (≈ 105 nM) | EC50 [1]: 0.27 ng/mL (≈ 0.812 nM) | EC50 PRA A/New [1]: 0.23 ng/mL (≈ 0.692 nM) | EC50 (recent clinical isolates): 20 to 160 nM | ID50 B/Harbin/7/95 (Influenza B/Harbin/7/95): 13 ± 11 ng/mL (≈ 39.1 nM) | ID50 A/Sydney/5/97 (Influenza A/Sydney/5/97): 23 ± 24 ng/mL (≈ 69.2 nM) | EC50 [2]: 2.7 ng/mL (≈ 8.12 nM) | EC50 PRA A/Pan [2]: 3 ng/mL (≈ 9.03 nM) | EC50 [3]: 5.5 ng/mL (≈ 16.6 nM) | EC50 [6]: 2.4 ng/mL (≈ 7.22 nM) | Ratio Mean [lung] [cmpd]/PCT AU01/01128 compound 3 ([7]; 48 h): 0.26 | Ratio Mean [lung] [cmpd]/PCT AU01/01128 compound 3 ([7]; 168 h): 0.08 | concentration at 48 h ([7]; Mean [cmpd] ng/g): 352 ng/g | concentration at 168 h ([7]; Mean [cmpd] ng/g): 61 ng/g | concentration at 48 h ([7]; [cmpd] ng/g): 421 ng/g | EC50 (B/Hong Kong/5/72 BVLV012): 21 ng/mL (≈ 63.2 nM)

CC(=O)N[C@H]1[C@H]([C@H](OC(=O)NCCCNC(=O)c2cc(C(=O)O)cc(C(=O)NCCCNC(=O)O[C@@H]([C@@H]3OC(C(=O)O)=C[C@H](NC(=N)N)[C@H]3NC(C)=O)[C@H](O)CO)c2)[C@H](O)CO)OC(C(=O)O)=C[C@@H]1NC(=N)N [Compound 9]
ID50 B/Harbin/7/95 (Influenza B/Harbin/7/95): 0.3 ng/mL (≈ 0.289 nM) | ID50 A/Sydney/5/97 (Influenza A/Sydney/5/97): 0.1 ng/mL (≈ 0.0962 nM)

CC(=O)N[C@H]1[C@H]([C@H](OC(=O)NCCCNC(=O)c2ccccc2C(=O)NCCCNC(=O)O[C@@H]([C@@H]2OC(C(=O)O)=C[C@H](NC(=N)N)[C@H]2NC(C)=O)[C@H](O)CO)[C@H](O)CO)OC(C(=O)O)=C[C@@H]1NC(=N)N [Compound 12]
ID50 B/Harbin/7/95 (Influenza B/Harbin/7/95): 0.1 ng/mL (≈ 0.101 nM) | ID50 A/Sydney/5/97 (Influenza A/Sydney/5/97): >100 ng/mL

Source: patent US7157494B2, “Dimeric compounds and their use as anti-viral agents” (priority 2001, dated 2007)
